Results on eight compounds are retold here after ChEMBL document CHEMBL4387753 (Bioorg Med Chem, 2019).

Data set [1] relates to Bacillus subtilis. Description: Antibacterial activity against Bacillus subtilis ATCC 9372 incubated for 24 hrs by CLSI protocol based broth microdilution method. It counts as functional. Conditions: ATCC 9372, 24 h. (Broth dilution looks for growth in wells or tubes with falling amounts of substance.)
The subject of data set [2] is Bacillus pumilus. Description: Antibacterial activity against Bacillus pumilus CMCC63202 incubated for 24 hrs by CLSI protocol based broth microdilution method. It counts as functional. The conditions noted are these: CMCC63202, 24 h.
The test system of data set [3] is Staphylococcus aureus. Description: Antibacterial activity against Staphylococcus aureus ATCC 25923 incubated for 24 hrs by CLSI protocol based broth microdilution method. Conditions: ATCC 25923, 24 h. Format: functional.
The test system of data set [4] is Staphylococcus aureus. Description: Antibacterial activity against methicillin-resistant Staphylococcus aureus ATCC 43300 incubated for 24 hrs by CLSI protocol based broth microdilution method. It counts as functional. The conditions noted are these: ATCC 43300, 24 h.
For data set [5], the system named is Staphylococcus aureus. Kind of data set: Antibacterial activity against penicillin-resistant Staphylococcus aureus clinical isolate incubated for 24 hrs by CLSI protocol based broth microdilution method. Format: functional.
Data set [6] relates to Escherichia coli. Kind of data set: Antibacterial activity against Escherichia coli ATCC 25922 incubated for 24 hrs by CLSI protocol based broth microdilution method. Format: functional. The conditions noted are these: ATCC 25922, 24 h.
Data set [7] relates to Pseudomonas aeruginosa. Kind of data set: Antibacterial activity against Pseudomonas aeruginosa ATCC 27853 incubated for 24 hrs by CLSI protocol based broth microdilution method. Format: functional. Conditions: ATCC 27853, 24 h.
The target of data set [8] is T1, Cell division protein FtsZ (Bacillus subtilis (strain 168)) (UniProt P17865).
T1 sequence (whole entry): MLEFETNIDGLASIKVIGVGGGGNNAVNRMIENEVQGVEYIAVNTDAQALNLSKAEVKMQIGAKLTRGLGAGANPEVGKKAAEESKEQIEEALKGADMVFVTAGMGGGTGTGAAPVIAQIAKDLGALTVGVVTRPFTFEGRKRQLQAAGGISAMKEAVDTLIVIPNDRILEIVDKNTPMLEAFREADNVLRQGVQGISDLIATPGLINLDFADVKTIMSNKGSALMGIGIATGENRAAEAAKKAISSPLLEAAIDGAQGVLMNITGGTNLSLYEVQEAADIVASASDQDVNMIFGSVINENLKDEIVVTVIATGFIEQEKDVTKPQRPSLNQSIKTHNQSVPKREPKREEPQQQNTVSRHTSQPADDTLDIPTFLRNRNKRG
Description: Induction of Bacillus subtilis FtsZ polymerization in presence of GTP at 5 ug/ml measured over 30 mins by microtiter plate-based light-scattering assay.

Data set [9] in a line: Stability in mouse plasma assessed as degradation of compound at 25 ug/ml incubated for 24 hrs by RP-HPLC analysis. Format: ADME, cell-free.
Data set [10] can be described thus: Clearance in mouse liver microsomes incubated for 20 mins in presence of NADPH by RP-HPLC analysis. It counts as ADME, Microsome. (In general: Liver microsomes are vesicles of endoplasmic reticulum, rich in cytochrome P450 enzymes.)
The nature of data set [11]: Half life in mouse liver microsomes in presence of NADPH by RP-HPLC analysis. Format: ADME, Microsome.
Data set [12] relates to Staphylococcus aureus. Description: Antibacterial activity against Staphylococcus aureus clinical isolate incubated for 24 hrs by CLSI protocol based broth microdilution method. It counts as functional.
Data set [13] has as its system Staphylococcus aureus. Description: Ratio of MBC for Staphylococcus aureus ATCC 25923 to MIC for Staphylococcus aureus ATCC 25923. Format: functional.
The subject of data set [14] is Staphylococcus aureus. Description: Bactericidal activity against methicillin-resistant Staphylococcus aureus ATCC 43300 assessed as log reduction in viable bacterial count at 2 ug/ml incubated for 24 hrs by time-kill curve assay. Format: functional.
Data set [15] deals with Staphylococcus aureus. Kind of data set: Bactericidal activity against Staphylococcus aureus ATCC 25923 assessed as 3 log reduction in number of colony forming units incubated for 24 hrs followed by aliquots transfer to tryptic soy agar and grown for 24 hrs. Format: functional. The conditions noted are these: ATCC 25923, 24 h.
For data set [16], the system named is Staphylococcus aureus. Kind of data set: Bactericidal activity against Staphylococcus aureus ATCC 43300 assessed as 3 log reduction in number of colony forming units incubated for 24 hrs followed by aliquots transfer to tryptic soy agar and grown for 24 hrs. Format: functional. The conditions noted are these: ATCC 43300, 24 h.
The test system of data set [17] is Staphylococcus aureus. Kind of data set: Bactericidal activity against penicillin-resistant Staphylococcus aureus clinical isolate assessed as 3 log reduction in number of colony forming units incubated for 24 hrs followed by aliquots transfer to tryptic soy agar and grown for 24 hrs. It counts as functional.
Data set [18] relates to Staphylococcus aureus. Description: Bactericidal activity against methicillin-resistant Staphylococcus aureus ATCC 43300 assessed as log reduction in viable bacterial count at 4 ug/ml incubated for 24 hrs by time-kill curve assay. It counts as functional.

Converted amounts (≈) assume the structure as drawn. The source made the active and inactive calls.

For the compound `NC(=O)c1c(F)ccc(OCc2nn(-c3ccc(Br)cc3)c(=O)[nH]2)c1F`, the MIC in data set [1], in data set [2], in data set [3], in data set [4], in [5] and in data set [6] was > 64 µg/mL each time. The MIC (commonly the least concentration at which growth counts as inhibited) in data set [7] was > 64 µg/mL. For the same compound, the result in [8] was inactive. The Stability entry in [9] was “Stable”. Besides, the CLH in data set [10] is recorded as 24.3%. Also, the half-life (as a rule, how long it takes for the measured level to halve) in [11] was > 1.5 h.
For `CCn1c(COc2ccc(F)c(C(N)=O)c2F)nn(-c2ccc(Br)cc2)c1=O`, the MIC in [1], in data set [2], in data set [3], in [4], in data set [5] and in data set [6] was > 64 µg/mL each time. The MIC in data set [7] is > 64 µg/mL. The result in data set [8] was inactive.
`NC(=O)c1c(F)ccc(OCn2nc(-c3ccc(Cl)cc3)oc2=O)c1F`: the MIC in data set [1], in data set [2], in data set [3], in data set [4], in data set [5] and in data set [12] was > 64 µg/mL throughout. Besides, the MIC in [6] and in data set [7] was > 64 µg/mL throughout. Besides, the result in data set [8] was inactive.
As to `NC(=O)c1c(F)ccc(OCc2nc3cc(Cl)cnc3s2)c1F`, the MIC turned out to be 0.5 µg/mL (≈ 1.41 µM) in data set [1]; 0.5 µg/mL (≈ 1.41 µM) in data set [2]; 1 µg/mL (≈ 2.81 µM) in data set [3]; 1 µg/mL (≈ 2.81 µM) in data set [4]; 1 µg/mL (≈ 2.81 µM) in data set [5]; 0.5 µg/mL (≈ 1.41 µM) in data set [12]. For the same compound, the MIC in [6] and in data set [7] was > 64 µg/mL throughout. Moreover, the Ratio in data set [13] was found to be 1. Moreover, the Activity in [14] was 4 log10CFU/ml. Further, the MBC in data set [15], in data set [16] and in data set [17] was 1 µg/mL (≈ 2.81 µM) in each case.
Turning to `CC(=O)NC[C@H]1CN(c2ccc(N3CCOCC3)c(F)c2)C(=O)O1` [LINEZOLID], the MIC in data set [1] was 0.5 µg/mL (≈ 1.48 µM); in [2], 2 µg/mL (≈ 5.93 µM); in data set [12] it was 1 µg/mL (≈ 2.96 µM); in data set [6], > 64 µg/mL; in [7], > 64 µg/mL. Further, in data set [18], the Activity came to 1 log10CFU/ml. In data set [8], the result was inactive. Besides, the minimal bactericidal concentration (MBC) in data set [15], in [16] and in data set [17] was > 64 µg/mL throughout.
Turning to `CN[C@H](CC(C)C)C(=O)N[C@H]1C(=O)N[C@@H](CC(N)=O)C(=O)N[C@H]2C(=O)N[C@H]3C(=O)N[C@H](C(=O)N[C@H](C(=O)O)c4cc(O)cc(O)c4-c4cc3ccc4O)[C@H](O)c3ccc(c(Cl)c3)Oc3cc2cc(c3O[C@@H]2O[C@H](CO)[C@@H](O)[C@H](O)[C@H]2O[C@H]2C[C@](C)(N)[C@H](O)[C@H](C)O2)Oc2ccc(cc2Cl)[C@H]1O` [VANCOMYCIN], the Activity in [14] is 4 log10CFU/ml. In addition, the MBC (as a rule, the smallest concentration meeting the test's criterion for killing) in data set [15] amounted to 2 µg/mL (≈ 1.38 µM); in data set [16], 1 µg/mL (≈ 0.69 µM); in data set [17], 1 µg/mL (≈ 0.69 µM).
Turning to `NC(=O)c1c(F)ccc(OCC2=NN(c3ccc(Br)cc3)C(=O)C2)c1F`, the MIC in data set [1], in data set [2], in [3], in data set [4], in [5] and in data set [6] was > 64 µg/mL each time. In addition, in data set [7], the MIC is > 64 µg/mL. Also, the result in data set [8] was inactive.
Consider `CC(C)c1ccc(-n2nc(COc3ccc(F)c(C(N)=O)c3F)oc2=O)cc1`, for which the MIC in [1] stood at 1 µg/mL (≈ 2.57 µM); in [2], 2 µg/mL (≈ 5.14 µM); in data set [3] it was 16 µg/mL (≈ 41.1 µM); in data set [4], 16 µg/mL (≈ 41.1 µM); in [5] it was 32 µg/mL (≈ 82.2 µM); in [12], 16 µg/mL (≈ 41.1 µM). The MIC in data set [6] and in data set [7] was > 64 µg/mL throughout.
